Laboratory results as given in ChEMBL document CHEMBL5537149, “Design, synthesis, and lead optimization of piperazinyl-pyrimidine analogues as potent small molecules targeting the viral capping machinery of Chikungunya virus” (Eur J Med Chem, 2024).
In brackets after ≈: the same amount, converted by molar mass. Activity calls are given as the source filed them. The calls are words filed in the database; no cut-off is given here.

Legend:
[1] = Aqueous solubility of compound at pH 7.4 by HPLC analysis; format: physicochemical
Enterovirus = assay: Antiviral activity against Human enterovirus 71 infected in African green monkey Vero cells assessed as reduction in virus induced cell death; format: functional, organism-based
hERG (KCNH2) = hERG (KCNH2) (Homo sapiens, UniProt Q12809); assay: Inhibition of hERG in Xenopus laevis Oocytes upto 30 uM incubated for 10 mins by patch-clamp method relative to control; format: cell-based, Oocyte; settings: Xenopus laevis oocytes expressing hERG
Zika virus = assay: Antiviral activity against Zika virus infected in African green monkey Vero cells assessed as reduction in virus induced cell death; format: functional, organism-based
Semliki Forest virus = assay: Antiviral activity against Semliki forest virus infected in African green monkey Vero cells assessed as reduction in virus induced cell death; format: functional, organism-based
Chikungunya virus [2] = assay: Antiviral activity against Chikungunya virus infected in African green monkey Vero cells assessed as reduction in viral induced cell death incubated for 5 days by MTS reagent based absorbance method; format: functional, organism-based; settings: 120 h
Sindbis virus = assay: Antiviral activity against Sindbis virus HRsp infected in African green monkey Vero cells assessed as reduction in virus induced cell death; format: functional, organism-based
[3] = Metabolic stability in human liver microsomes assessed as parent compound remaining preincubated for 5 mins followed by NADPH addition and measured upto 60 mins by HPLC-MS/MS analysis; format: ADME, Microsome; settings: time < 65 min, read-out: Stability
[4] = Metabolic stability in human liver microsomes assessed as half-life preincubated for 5 mins followed by NADPH addition and measured upto 60 mins by HPLC-MS/MS analysis; format: ADME, Microsome; settings: time < 65 min
Caco-2 [5] = assay: Cytotoxicity against human Caco-2 cells incubated for 24 to 72 hrs by MTT assay; format: toxicity, cell-based; settings: time 24-72 hrs
[6] = Cytotoxicity against African green monkey Vero cells assessed as reduction in overall metabolic activity incubated for 5 days by MTS reagent based absorbance method; format: toxicity, cell-based; settings: chlorocebus sabaeus, time 5 day
[7] = Selectivity index, ratio of CC50 for cytotoxicity against African green monkey Vero cells to EC50 for antiviral activity against Chikungunya virus infected in African green monkey Vero cells assessed as reduction in viral induced cell death; format: toxicity, cell-based; settings: read-out: Ratio CC50/EC50
Caco-2 [8] = assay: Induction of apoptosis in human Caco-2 cells assessed as increase in caspase-3 expression at 6.25 to 100 uM incubated for 72 hrs by Western blot analysis; format: toxicity, cell-based; settings: caco-2, 72 h, dose 6.25-100 µM
Chikungunya virus [9] = assay: Antiviral activity against Chikungunya virus 899 infected in African green monkey Vero cells assessed as reduction in viral RNA replication preincubated for 2 hrs with subsequent viral infected followed by media replacement with compound and measured after 48 hrs by qRT-PCR analysis; format: functional, organism-based; settings: dose 0.25-60 µM, time 50.0 hrs
Chikungunya virus [10] = assay: Fold resistance , ratio of EC50 for antiviral activity against CHVB-resistant Chikungunya virus infected in African green monkey Vero cells to EC50 for antiviral activity against wildtype Chikungunya virus 899 infected in African green monkey Vero cells; format: functional
Caco-2 [11] = assay: Induction of apoptosis in human Caco-2 cells assessed as increase in PARP expression at 6.25 to 100 uM incubated for 72 hrs by Western blot analysis; format: toxicity, cell-based; settings: caco-2, 72 h, dose 6.25-100 µM

hERG (KCNH2), sequence (Q12809 whole entry): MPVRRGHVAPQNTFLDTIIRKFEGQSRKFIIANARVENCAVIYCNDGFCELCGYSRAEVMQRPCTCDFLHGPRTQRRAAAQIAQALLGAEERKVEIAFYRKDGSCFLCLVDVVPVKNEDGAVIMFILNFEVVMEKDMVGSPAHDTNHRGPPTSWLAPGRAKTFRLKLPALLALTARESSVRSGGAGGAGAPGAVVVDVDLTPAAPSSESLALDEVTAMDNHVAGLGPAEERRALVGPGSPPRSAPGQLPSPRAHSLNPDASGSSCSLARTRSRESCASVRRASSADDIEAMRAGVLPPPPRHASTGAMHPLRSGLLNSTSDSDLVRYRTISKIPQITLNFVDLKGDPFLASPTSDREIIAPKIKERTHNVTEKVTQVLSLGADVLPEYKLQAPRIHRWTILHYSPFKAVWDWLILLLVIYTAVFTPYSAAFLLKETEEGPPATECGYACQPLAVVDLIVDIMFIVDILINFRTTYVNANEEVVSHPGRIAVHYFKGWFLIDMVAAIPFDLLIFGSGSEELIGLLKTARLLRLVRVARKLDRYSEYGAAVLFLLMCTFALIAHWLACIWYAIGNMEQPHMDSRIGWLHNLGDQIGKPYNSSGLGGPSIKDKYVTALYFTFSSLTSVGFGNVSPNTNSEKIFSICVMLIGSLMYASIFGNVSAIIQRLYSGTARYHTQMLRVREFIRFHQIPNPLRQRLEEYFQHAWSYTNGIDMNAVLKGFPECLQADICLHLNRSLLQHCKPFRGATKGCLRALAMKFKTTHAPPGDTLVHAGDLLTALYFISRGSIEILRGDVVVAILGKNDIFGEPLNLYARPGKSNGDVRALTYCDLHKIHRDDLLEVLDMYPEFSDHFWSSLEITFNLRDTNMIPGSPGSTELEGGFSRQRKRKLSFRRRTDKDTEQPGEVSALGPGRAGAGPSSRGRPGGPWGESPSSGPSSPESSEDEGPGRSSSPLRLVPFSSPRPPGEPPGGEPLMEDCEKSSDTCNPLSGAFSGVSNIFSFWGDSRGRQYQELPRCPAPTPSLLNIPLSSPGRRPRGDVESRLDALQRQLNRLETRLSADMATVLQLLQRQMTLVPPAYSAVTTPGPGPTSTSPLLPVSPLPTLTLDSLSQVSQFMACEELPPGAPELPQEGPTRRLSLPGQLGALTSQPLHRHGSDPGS

| SMILES | solubility [1] [µM] | Activity (Enterovirus) | inhibition at 10 min, up to 30 µM (hERG (KCNH2)) [%] | Activity (Zika virus) | Activity (Semliki Forest virus) | EC50 (Chikungunya virus [2]) [µM] | Activity (Sindbis virus) | remaining at 1 h [3] [%] | half-life [4] [h] | Activity (Caco-2 [5]) | CC50 at 120 h [6] [µM] | selectivity ratio [7] | Activity (Caco-2 [8]) | Activity (Chikungunya virus [9]) | Ratio EC50 (Chikungunya virus [10]) | Activity (Caco-2 [11]) |
| --- | --- | --- | --- | --- | --- | --- | --- | --- | --- | --- | --- | --- | --- | --- | --- | --- |
| O=S(=O)(c1ccc(F)cc1)N1CCN(c2ncccn2)CC1 | 64 (≈ 20.6 µg/mL) | inactive | 9.63 | inactive | inactive | 310 | inactive | – | – | – | – | – | – | – | – | – |
| CCNc1nc(C)cc(N2CCN(C(=O)c3ccc([N+](=O)[O-])cc3)CC2)n1 | > 120 | – | – | – | – | 0.91 | – | 100 | > 1 | Non-Toxic | > 100 | > 110 | Non-Toxic | Dose-Dependent Effect | 14 | Non-Toxic |
